According to PMC11997307, “Rat Sarcoma (RAS)-Protein-Targeting Synthetic Cell-Penetrating Peptide as an Anticancer Biomaterial” (Biomaterials Research, 2025):

What was measured:
[1] = tested on: MCF-7 cells; test: Cell viability, CCK-8 assay, MCF-7; format: cell-based, human; details: MCF-7 (KRAS wild-type), CCK-8, 0-1,000 μM RBP, 24, 48 or 72 h, triplicate
Protocol: (§1) The viability of the cells was determined via Cell Counting Kit-8 (CCK-8; Dojindo Laboratories, Kumamoto, Japan) assay. The cells were plated in 96-well culture plates at a density of 5 × 10^3 cells per well and incubated for 24 h at 37 °C in a humidified incubator with 5% CO2. […] After incubation, the medium was replaced with fresh medium containing 10% (v/v) CCK-8 reagent, and the cells were incubated for 2 h. Absorbance was measured at 450 nm using a microplate reader. All experiments were performed in triplicate.

[2] = tested on: MDA-MB-231 cells; test: Transwell migration assay; format: cell-based, human; details: MDA-MB-231, Transwell 8-μm pore, 200 μM RBP, 6 h
Protocol: (§2) To assess MDA-MB-231 cell migration, 2 methods were employed: a Transwell migration assay and a scratch assay. For the Transwell migration assay, 24-well Transwell plates (8-μm pore size; Costar, Corning Incorporated, Corning, NY, USA) were used to evaluate the invasive potential of the cells. […] Following a 6-h incubation period, nonmigratory cells were carefully removed from the upper surface of the membrane using a PBS-soaked cotton swab. The cells that successfully migrated through the membrane were fixed in methanol for 10 min, and Giemsa staining was used to visualize them. Images were captured using an Olympus DP72 camera at ×100 magnification, and the number of migrated cells in the treated samples was compared with that in the control samples. For the scratch assay, MDA-MB-231 cells (1 × 10^6 cells) were cultured in 6-well plates until they reached confluence. The cells were rinsed with PBS and incubated overnight in serum-free medium. A sterile 200-μl plastic pipette tip was used to create a linear scratch in the center of the monolayer. […] Images were taken immediately after scratching and again after 6, 24, 48, and 72 h of incubation using an Olympus CKX41 inverted microscope at ×20 magnification to evaluate the distance the cells migrated from the wound edge.

[3] = tested on: HT-29 cells; test: Cell viability, CCK-8 assay, HT-29; format: cell-based, human; details: HT-29 (KRAS wild-type), CCK-8, 0-1,000 μM RBP, 24, 48 or 72 h, triplicate
Protocol: as §1

[4] = tested on: MDA-MB-231 cells; test: Scratch wound migration assay; format: cell-based, human; details: MDA-MB-231, serum-starved monolayer, 6-72 h
Protocol: as §2

[5] = tested on: MDA-MB-231 cell-derived tumors; test: Mouse xenograft tumor model; format: in vivo; details: BALB/c nude mice, MDA-MB-231 xenograft
Protocol: Female BALB/c nude mice (aged 5 to 6 weeks) were utilized in these studies to establish breast cancer xenograft models. These mice were obtained from Orient Bio, Inc. (Seongnam, Republic of Korea) and maintained in the Division of Laboratory Animal Resources animal facility throughout the experimental period. The selection, management, and experimental protocols, as well as the preparation of the animals, were conducted in accordance with the guidelines approved by the Institutional Animal Care and Use Committee of Seoul National University. All experiments adhered to the animal protocol approved by the Institutional Animal Care and Use Committee at Seoul National University (protocol number: SNU-171026-1-5). MDA-MB-231 cells were cultured until they reached 80% to 90% confluency and then harvested and prepared as suspensions (3 × 10^6 cells/100 μl in PBS) mixed with Matrigel. These cell suspensions were injected into the right hind flanks of nude mice (n = 8). […] The control mice received PBS injections. The mice were weighed, and their tumor volumes were measured 3 times per week using Vernier calipers, starting on the first day of treatment. The tumor volume was calculated using the formula tumor volume = A × B^2 × 0.52, where A represents the longest tumor diameter and B represents the shortest diameter. After 6 weeks, the mice were euthanized in a sealed chamber with CO2 gas for 5 to 10 min, and their solid tumors were harvested and fixed in 4% paraformaldehyde for subsequent analysis via immunohistochemistry (IHC).
The tissues were fixed in 4% formalin before being embedded in paraffin. Sections with a thickness of 4 μm were deparaffinized with xylene and then rehydrated with a graded series of ethanol solutions, ranging from 95% to 100%. […] Antibody binding was detected through incubation with EnVision FLEX/horseradish peroxidase (Dako) for 30 min. […] The intensity and distribution of Ki-67-specific immunostaining were assessed using a Leica DM6B digital light fluorescence microscope following hematoxylin counterstaining.

[6] = 10 mg/kg intraperitoneal, 6 weeks

## C[C@@H](O)[C@H](NC(=O)[C@H](CO)NC(=O)[C@H](CS)NC(=O)[C@H](CCCCN)NC(=O)CN)C(=O)N[C@@H](CCCNC(=N)N)C(=O)NCC(=O)N[C@@H](CCCNC(=N)N)C(=O)N[C@@H](CCCCN)C(=O)N[C@@H](CS)C(=O)N[C@@H](CS)C(=O)N[C@@H](CCCNC(=N)N)C(=O)N[C@@H](CCCNC(=N)N)C(=O)N[C@@H](CCCCN)C(=O)N[C@@H](CCCCN)C(N)=O [RBP]
[1]
  decrease in the percentage of viable cells: not significant
[2]
  reduction of cell invasion vs NT group: 70%
[3]
  decrease in the percentage of viable cells: not significant
[4]
  tumor cell migration in scratch assay: significantly inhibited
[5]; 10 mg/kg intraperitoneal 3 times per week for 6 weeks, n = 8, P < 0.05
  tumor growth vs not-treated group: significant reduction
[5]; [6]
  Ki-67 expression in tumor sections (IHC): decreased Ki-67 expression
  immune cell infiltration in tumors (H&E): increased immune cell infiltration
